# From patent US7531668B2, “2-arylcarboxamide-nitrogenous heterocycle compound” (Banyu Pharmaceutical Co., Ltd., priority 2004, dated 2009)
# Where a name gives a salt, the structure may show the parent alone.
# Biological target: T1, human MCH-1R (Homo sapiens, UniProt Q99705)
# T1 construct: expressed in transfected cells; host or cells: CHO-K1 (American Type Culture Collection), vector pEF/mic/cyto (Invitrogen)
# Experiment: MCH binding inhibition test ([125I]MCH binding to membranes of MCH-1R expressing CHO-K1 cells)
# Conditions: 50% inhibition concentration to the specific [125I]MCH binding; 50 pM [125I]MCH, membranes of MCH-1R expression CHO-K1 cells, 25° C., one hour, pH 7.4
# Source text: Pharmacological Test Example 1 (MCH Binding Inhibition Test)
# A human MCH-1R encoding cDNA sequence [FEBS Letters, Vol. 398, 253 (1996); Biochimica et Biophisica Acta, Vol. 1401, 216 (1998)] was cloned to a plasmid vector pEF/mic/cyto (Invitrogen Corporation). The obtained expression vector was transfected to host cells CHO-K1 (American Type Culture Collection) using Lipofectamine Plus Reagent (Life Technology Inc.) to provide MCH-1R expression cells.
# Membrane samples prepared from the MCH-1R expression cells were incubated with each test compound and 50 pM of [^125I]MCH (NEN Co.), in an assay buffer (50 mM Tris buffer comprising 10 mM magnesium chloride, 2 mM ethylenediamine tetraacetate, 0.01% bacitracin and 0.2% bovine serum albumin; pH 7.4) at 25° C. for an hour, followed by filtration through a glass filter GF/C (Wattman Co.). After washing the glass filter with 50 mM Tris buffer (pH 7.4) comprising 10 mM magnesium chloride, 2 mM ethylenediamine tetraacetate and 0.04% Tween-20, the radioactive activity on the glass filter was measured. The non-specific binding was measured in the presence of 1 μM human MCH and 50% inhibition concentration (IC50 value) of each test compound to the specific [^125I,]MCH binding was determined.
# T1 sequence (Q99705 whole entry): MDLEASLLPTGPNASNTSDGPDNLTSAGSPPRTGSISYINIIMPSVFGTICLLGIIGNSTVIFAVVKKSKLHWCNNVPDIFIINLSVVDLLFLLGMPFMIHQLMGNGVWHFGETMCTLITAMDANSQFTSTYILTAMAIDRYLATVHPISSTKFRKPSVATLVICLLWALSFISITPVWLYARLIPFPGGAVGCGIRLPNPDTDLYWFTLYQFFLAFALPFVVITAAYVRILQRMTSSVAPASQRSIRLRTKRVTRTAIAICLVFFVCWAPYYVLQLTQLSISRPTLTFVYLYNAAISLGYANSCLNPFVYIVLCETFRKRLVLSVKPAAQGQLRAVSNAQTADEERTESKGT
row,Compound,IC50 [nM]
1,"O=C(Nc1ccc(CN2CCOCC2)cc1)c1cc2cc(OCc3ccccc3)ccc2[nH]1 [Example 1-1, 5-(benzyloxy)-N-[4-(morpholinomethyl)phenyl]-1H-indole-2-carboxamide hydrochloride]",9.6
2,"CCN(CC)Cc1ccc(NC(=O)c2cc3cc(OCc4ccccc4)ccc3[nH]2)cc1 [Example 1-3, 5-(benzyloxy)-N-{4-[(diethylamino)methyl]phenyl}-1H-indole-2-carboxamide]",5.6
3,"O=C(Nc1ccc(CN2CCCC2)cc1)c1cc2cc(OCc3ccccc3)ccc2[nH]1 [Example 2-6, 5-(benzyloxy)-N-[4-(1-pyrrolidinylmethyl)phenyl]-1H-indole-2-carboxamide trifluoroacetate]",2.6
4,"COCCN(C)Cc1ccc(NC(=O)c2cc3cc(OCc4ccccc4)ccc3[nH]2)cc1 [Example 2-10, 5-(benzyloxy)-N-(4-{[(2-methoxyethyl)(methyl)amino]methyl}phenyl)-1H-indole-2-carboxamide]",4.6
